Consider 11 molecules from article PMC6321166, “Screening of a Library of Oligosaccharides Targeting Lectin LecB of Pseudomonas Aeruginosa and Synthesis of High Affinity Oligoglycoclusters” (Molecules, 2018).

In one test the target is LecB (Pseudomonas aeruginosa, UniProt Q9HYN5). The following applies: cited from earlier work.
For another test, the target named is LecB from PAO1. The note with it: read-out: dissociation constant (Kd); cited from earlier work.
The target in another test is LecB from PA7. Details: method as in PMID 27303392. The note with it: read-out: dissociation constant (Kd); cited from earlier work.
The target in the next test is LecB from PA14. Details: method as in PMID 30155149. The following applies: read-out: dissociation constant (Kd); cited from earlier work.
For another test, the target named is T1, LecB (PAO1) (Pseudomonas aeruginosa, UniProt Q9HYN5).
T1 construct: purchased Elicityl
Nature of the test: Competitive assay on microarray: glycans in solution compete with immobilized fucocluster F1 for Alexa 647-LecB. The note with it: glycan at 0.1, 1.0, 5.0 and 15 µM, Alexa 647-LecB 0.12 µM. Details: key: A Grade A was given for oligosaccharides that were able to reduce 80 to 40% of the fluorescent signal at a concentration of 0.1 µM and to reduce it by more than 90% at concentrations of 1, 5 and 15 µM; Grade B indicated a decrease of fluorescence by 70% to 90% at 1 µM and more than 90% at 5 and 15 µM; Grade C corresponded to a decrease of 50 to 70% for 1 µM, around 80% for 5 µM and more than 90% at 15 µM; D indicated a decrease of less than 50% for 1 µM and 80% at 5 and 15 µM; When no inhibition was observed for the four concentrations tested, the grade was E. In kind it is binding. Here is the method: F1 was immobilized on a DNA chip, thanks to its DNA sequence. The distance between two F1 on the surface was estimated to be nearly 50 nm. Therefore, the lectin LecB can only bind to one F1 glycocluster at the time. The binding of immobilized F1 to LecB was competed with each of the 156 glycans at four different concentrations (0.1, 1.0, 5.0 and 15 µM). For each glycan and each concentration, the alexa 647-LecB fluorescent signal was recorded and averaged over 16 spots, leading to four-point competition histograms (Figure 2 and Figure S2). 100% signal (see Figure 2) corresponded to the fluorescent signal measured with a reference assay under which no competition could occur. Glycans able to compete with F1 to bind LecB lead to a decrease of the fluorescent signal. Therefore, for a given glycan concentration, strong binding glycans lead to stronger decrease of the fluorescent signal so to lower percentages. Accordingly, tested glycans were classified qualitatively into 5 groups (A, B, C, D and E) depending to their ability to reduce the measured fluorescent signal at the four different concentrations (Figure 2 and Table 1). Grade A are stronger competitor than grade B which are stronger than grade C, and so on. A Grade A was given for oligosaccharides that were able to reduce 80 to 40% of the fluorescent signal at a concentration of 0.1 µM and to reduce it by more than 90% at concentrations of 1, 5 and 15 µM. Grade B indicated a decrease of fluorescence by 70% to 90% at 1 µM and more than 90% at 5 and 15 µM. Grade C corresponded to a decrease of 50 to 70% for 1 µM, around 80% for 5 µM and more than 90% at 15 µM. D indicated a decrease of less than 50% for 1 µM and 80% at 5 and 15 µM.
Cy3-oligonucleotide oligoglycoclusters F1 [46] […] In each microwell, 1.5 µL of the oligoglycocluster mixture was incubated for DNA-directed immobilization (DDI) for 3 h at 37 °C in a water-saturated atmosphere. The slides were washed with saline sodium citrate (SSC) 2× SDS 0.1% at 51 °C for 1 min, SSC 2× for 5 min and rinsed with water.
A library of 156 sugars extracted from biomass or produced by bacterial fermentation (see Supporting Information) issued from the OligoTech® (Elicityl) was screened in a competitive assay. The binding of the 156 carbohydrates was screened toward the lectin LecB (PAO1, Elicityl). Lectin was labeled as previously described using the Alexa Fluor® 647 Microscale Protein Labelling Kit (Invitrogen).
On each slide, nine oligosaccharides and α-L-fucose (as a control) were tested. The inhibitory effect of each oligosaccharide was determined at four concentrations 0.1, 1.0, 5.0 and 15 µM and at 0.5, 2.5, 5.0 and 7.5 mg/L for polymers: Aliginate, galacturonan, galactomannan, glucomannan, mannan, ulvan, xylan and the glucan. To this end, the labeled LecB lectin (0.12 µM final concentration), BSA (2%, final concentration), CaCl2 (7.5 µM, final concentration) in PBS 1× (pH 7.4) were mixed with the solutions of oligosaccharides (from the OligoTech®, Crolles, France). For each concentration, 1.5 µL of the mixture was poured into a microwell, where F1 was previously immobilized. The slides were incubated for 3 h at 37 °C in a water-saturated atmosphere. In each microwell, a competition between the two types of glycoclusters (F1) and oligosaccharide occurred to bind LecB. The microarrays were washed with 0.02% PBS-Tween20 for 5 min at room temperature. The fluorescence signal emitted by the complex glycocluster/Alexa 647-lectin was detected and an average of the mean fluorescence signal of 16 spots per glycocluster was calculated. The percentage of inhibition was calculated as follows: The alexa-647 fluorescent signal for a given sugar was normalized by the Alexa 647 fluorescent signal measured at 0.1 µM of fucose.

T1 sequence (Q9HYN5 entry or part of it): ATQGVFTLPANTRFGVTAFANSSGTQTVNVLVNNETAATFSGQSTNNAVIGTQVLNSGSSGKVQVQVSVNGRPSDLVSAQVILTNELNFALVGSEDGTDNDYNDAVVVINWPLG
Sequence of LecB (Q9HYN5 entry or part of it): as above

With `O=C[C@H](O)[C@@H](O)[C@@H](O)[C@H](O)CO` [D-galactose], the “recognition by LecB” value at LecB is “not recognized”.
With `OC[C@H]1OC(O)[C@@H](O)[C@@H](O)[C@@H]1O` (stereo partly drawn) [D-mannose], on LecB, the “interaction with LecB, times weaker than L-fucose” value was 25 times.
What is called Kd is a measure of binding affinity in units of concentration. `CO[C@@H]1O[C@@H](C)[C@@H](O)[C@@H](O)[C@@H]1O` [FucOMe]: the Kd is 430 nM on LecB from PAO1, 2200 nM on LecB from PA7 and 200 nM on LecB from PA14.
Regarding “Galα1-3(Galβ1-4GlcNAcβ1-3)2Galβ1-4Glc [Id. 45]”, the “Grade (ability to reduce the F1/LecB fluorescent signal)” value at LecB (PAO1) is given as “E”.
On the same count and under the same terms, then GalNAcα1-3(Fucα1-2)Gal [Id. 15], with “D (D indicated a decrease of less than 50% for 1 µM and 80% at 5 and 15 µM)”; and “Neu5Acα2-3Galβ1-4(Fucα1-3)GlcNAcβ1-3Gal [Id. 29]”, with “C (Grade C corresponded to a decrease of 50 to 70% for 1 µM, around 80% for 5 µM and more than 90% at 15 µM)”; and “Fucα1-2Galβ1-3(Fucα1-4)GlcNAcβ1-3Gal [Id. 32]”, with “C (Grade C corresponded to a decrease of 50 to 70% for 1 µM, around 80% for 5 µM and more than 90% at 15 µM)”.
Galβ1-4(Fucα1-3)Glc [Id. 33]: the “Grade (ability to reduce the F1/LecB fluorescent signal)” value on LecB (PAO1) is “B (Grade B indicated a decrease of fluorescence by 70% to 90% at 1 µM and more than 90% at 5 and 15 µM)”.
Consider `CC(=O)N[C@H]1[C@H](O[C@H]2[C@@H](O)[C@@H](CO)OC(O)[C@@H]2O)O[C@H](CO)[C@@H](O[C@@H]2O[C@@H](C)[C@@H](O)[C@@H](O)[C@@H]2O)[C@@H]1O[C@@H]1O[C@H](CO)[C@H](O)[C@H](O)[C@H]1O` (stereo partly shown) [Id. 30, Galβ1-3(Fucα1-4)GlcNAcβ1-3Gal], for which the “Grade (ability to reduce the F1/LecB fluorescent signal)” value at LecB (PAO1) is “A (A Grade A was given for oligosaccharides that were able to reduce 80 to 40% of the fluorescent signal at a concentration of 0.1 µM and to reduce it by more than 90% at concentrations of 1, 5 and 15 µM)”.
With `CC(=O)N[C@H]1[C@H](O[C@H]2[C@@H](O)[C@@H](CO)OC(O)[C@@H]2O)O[C@H](CO)[C@@H](O[C@@H]2O[C@H](CO)[C@H](O)[C@H](O)[C@H]2O)[C@@H]1O[C@@H]1O[C@@H](C)[C@@H](O)[C@@H](O)[C@@H]1O` (stereo partly shown) [Id. 26, Galβ1-4(Fucα1-3)GlcNAcβ1-3Gal], the “Grade (ability to reduce the F1/LecB fluorescent signal)” value at LecB (PAO1) is “C (Grade C corresponded to a decrease of 50 to 70% for 1 µM, around 80% for 5 µM and more than 90% at 15 µM)”.
Consider `Nc1ccc(S(N)(=O)=O)cc1` [sulfonamide], for which the dissociation constant (Kd) on LecB (inhibitors of LecB) is 3300 nM.
